The nature of data set [1]: H+/Na+ transport assay of bead-derived peptides (one-point).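 Also: relative to parent gramicidin A activity set to 1.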 Type of data set: biochemical. More on the design: key: relative activity; mean of two control wells = 1.00. Particulars: bead-derived peptide solution, EYPC/EYPG LUVs. The essentials:
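Values are normalized fluorescence, with Triton X-100 defining 100% and untreated LUVs 0%, and the two control wells averaging 1.00. Vesicles carried 1.0 mM pyranine and included egg yolk phosphatidylglycerol. Peptides were incubated with them 30 min at room temperature.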

Data set [2] relates to Streptococcus pyogenes SSI-9. Put plainly: Antibacterial activity assay of bead-derived peptides (three concentrations). The class given is cell-based. Also on record: key: +++: inhibition by the 640-fold diluted peptide solution; ++: inhibition by the 160-fold diluted solution; +: inhibition by the 40-fold diluted solution; -: no inhibition. Particulars: S. pyogenes, bead-derived peptide solution, three concentrations. The essentials: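 Bead-derived library peptide stocks in DMSO were tested undiluted and after 4- and 16-fold DMSO dilution against S. pyogenes SSI-9 (2 × 10^5 CFU/well) in cation-adjusted Mueller Hinton Broth with 5% laked horse blood. After 18 h at 37 °C, wells were scored for precipitation of grown cells.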

The conditions of data set [3]: cell viability/%. The essentials: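 First, library peptide stocks are diluted 250-fold in RPMI1640 with 10% heat-inactivated FBS. Next, they are mixed with P388 cells to give 1 × 10^4 cells/mL and incubated 92 h at 37 °C, 5% CO2. Finally, viability (%) is scored by WST-1 absorbance at 415 nm.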

The term viability denotes a per cent measure of how many cells are alive, often set against a control.

Each structure is given as a SMILES string. Where a SMILES comes first, the peptide text is derived from it. [ ]: non-standard residue; d: D form. The star is where a group is joined. NHCH2CH2OH = OCCN*; For = O=C*

In the case of `CC(C)C[C@@H](NC(=O)[C@H](C)NC(=O)[C@H](NC(=O)[C@H](C)NC(=O)CNC(=O)[C@@H](NC=O)C(C)C)C(C)C)C(=O)N[C@H](C(=O)N[C@H](CC(C)C)C(=O)N[C@@H](Cc1c[nH]c2ccccc12)C(=O)N[C@@H](C(=O)N[C@@H](Cc1c[nH]c2ccccc12)C(=O)N[C@@H](C(=O)N[C@@H](Cc1c[nH]c2ccccc12)C(=O)N[C@@H](C(=O)N[C@@H](Cc1c[nH]c2ccccc12)C(=O)NCCO)[C@H](C)O)C(C)C)C(C)C)C(C)C` [compound 6959] (For-VGA[dV]A[dL]V[dL]W[dV]W[dV]W[dT]W-NHCH2CH2OH), the “H+/Na+ transport activity normalized against the value of 1 (1.00)” value (“H+/Na+ transport activity normalized” for short) in data set [1] is recorded as 1.06. Further, the antibacterial activity result in data set [2] is on record as “+”. In addition, in data set [3], the viability is 100%.
`CC(C)C[C@@H](NC(=O)[C@H](C)NC(=O)CNC(=O)[C@@H](NC=O)C(C)C)C(=O)N[C@@H](C)C(=O)N[C@H](CC(C)C)C(=O)N[C@H](C(=O)N[C@@H](C(=O)N[C@@H](Cc1c[nH]c2ccccc12)C(=O)N[C@H](CC(C)C)C(=O)N[C@@H](Cc1c[nH]c2ccccc12)C(=O)N[C@@H](C(=O)N[C@@H](Cc1c[nH]c2ccccc12)C(=O)N[C@H](CC(C)C)C(=O)N[C@@H](Cc1c[nH]c2ccccc12)C(=O)NCCO)C(C)C)C(C)C)C(C)C` [compound 11305] (For-VGA[dL]A[dL]V[dV]W[dL]W[dV]W[dL]W-NHCH2CH2OH): the “H+/Na+ transport activity normalized” value in data set [1] stood at 1.26. The antibacterial activity entry in data set [2] is recorded as “+”. In data set [3], the viability stood at 15.5%.
`CC(C)C[C@@H](NC(=O)[C@H](C)NC(=O)[C@H](NC(=O)[C@H](C)NC(=O)CNC(=O)[C@@H](NC=O)C(C)C)[C@H](C)O)C(=O)N[C@H](C(=O)N[C@@H](C(=O)N[C@@H](Cc1c[nH]c2ccccc12)C(=O)N[C@H](CC(C)C)C(=O)N[C@@H](Cc1c[nH]c2ccccc12)C(=O)N[C@H](CC(C)C)C(=O)N[C@@H](Cc1c[nH]c2ccccc12)C(=O)N[C@@H](C(=O)N[C@@H](Cc1c[nH]c2ccccc12)C(=O)NCCO)C(C)C)C(C)C)C(C)C` [compound 4605] (For-VGA[dT]A[dL]V[dV]W[dL]W[dL]W[dV]W-NHCH2CH2OH): in data set [1], the “H+/Na+ transport activity normalized” value stood at 1.35. The antibacterial activity entry in data set [2] is reported as “-”. The compound further registered a viability in data set [3] of 100%.
Consider `CC(C)C[C@@H](NC(=O)[C@H](Cc1c[nH]c2ccccc12)NC(=O)[C@H](NC(=O)[C@@H](NC(=O)[C@H](NC(=O)[C@H](C)NC(=O)[C@H](NC(=O)[C@H](C)NC(=O)CNC(=O)[C@@H](NC=O)C(C)C)[C@H](C)O)C(C)C)C(C)C)C(C)C)C(=O)N[C@@H](Cc1c[nH]c2ccccc12)C(=O)N[C@@H](C(=O)N[C@@H](Cc1c[nH]c2ccccc12)C(=O)N[C@@H](C(=O)N[C@@H](Cc1c[nH]c2ccccc12)C(=O)NCCO)C(C)C)C(C)C` [compound 629] (For-VGA[dT]A[dV]V[dV]W[dL]W[dV]W[dV]W-NHCH2CH2OH), for which the “H+/Na+ transport activity normalized” value in data set [1] was determined as 1.12. In data set [2], the antibacterial activity result is reported as “-”. In data set [3], this compound showed a viability of 100%.
Consider `CC(C)C[C@@H](NC(=O)[C@H](C)NC(=O)[C@H](NC(=O)[C@H](C)NC(=O)CNC(=O)[C@@H](NC=O)C(C)C)[C@H](C)O)C(=O)N[C@H](C(=O)N[C@H](CC(C)C)C(=O)N[C@@H](Cc1c[nH]c2ccccc12)C(=O)N[C@@H](C(=O)N[C@@H](Cc1c[nH]c2ccccc12)C(=O)N[C@H](CC(C)C)C(=O)N[C@@H](Cc1c[nH]c2ccccc12)C(=O)N[C@H](CC(C)C)C(=O)N[C@@H](Cc1c[nH]c2ccccc12)C(=O)NCCO)C(C)C)C(C)C` [compound 4687] (For-VGA[dT]A[dL]V[dL]W[dV]W[dL]W[dL]W-NHCH2CH2OH), for which the “H+/Na+ transport activity normalized” value in data set [1] is given as 1.04. Also, the antibacterial activity result in data set [2] is “-”. This compound also gave a viability in data set [3] of 94.4%.
As to `CC(C)C[C@@H](NC(=O)[C@H](C)NC(=O)CNC(=O)[C@@H](NC=O)C(C)C)C(=O)N[C@@H](C)C(=O)N[C@@H](C(=O)N[C@H](C(=O)N[C@@H](C(=O)N[C@@H](Cc1c[nH]c2ccccc12)C(=O)N[C@@H](C(=O)N[C@@H](Cc1c[nH]c2ccccc12)C(=O)N[C@@H](C(=O)N[C@@H](Cc1c[nH]c2ccccc12)C(=O)N[C@H](CC(C)C)C(=O)N[C@@H](Cc1c[nH]c2ccccc12)C(=O)NCCO)C(C)C)[C@H](C)O)C(C)C)C(C)C)C(C)C` [compound 2207] (For-VGA[dL]A[dV]V[dV]W[dT]W[dV]W[dL]W-NHCH2CH2OH), the “H+/Na+ transport activity normalized” value in data set [1] is listed as 1.18. The antibacterial activity result in data set [2] is recorded as “-”. The same compound showed a viability in data set [3] of 100%.
Regarding `CC(C)C[C@@H](NC(=O)[C@H](C)NC(=O)CNC(=O)[C@@H](NC=O)C(C)C)C(=O)N[C@@H](C)C(=O)N[C@H](CC(C)C)C(=O)N[C@H](C(=O)N[C@@H](C(=O)N[C@@H](Cc1c[nH]c2ccccc12)C(=O)N[C@@H](C(=O)N[C@@H](Cc1c[nH]c2ccccc12)C(=O)N[C@@H](C(=O)N[C@@H](Cc1c[nH]c2ccccc12)C(=O)N[C@H](CC(C)C)C(=O)N[C@@H](Cc1c[nH]c2ccccc12)C(=O)NCCO)C(C)C)C(C)C)C(C)C)C(C)C` [compound 905] (For-VGA[dL]A[dL]V[dV]W[dV]W[dV]W[dL]W-NHCH2CH2OH), the “H+/Na+ transport activity normalized” value in data set [1] amounted to 1.19. Further, the antibacterial activity result in data set [2] is on record as “+”. Further, in data set [3], the viability is 90.6%.
The matching figures for `CC(C)C[C@@H](NC(=O)[C@H](C)NC(=O)[C@H](NC(=O)[C@H](C)NC(=O)CNC(=O)[C@@H](NC=O)C(C)C)C(C)C)C(=O)N[C@H](C(=O)N[C@H](CC(C)C)C(=O)N[C@@H](Cc1c[nH]c2ccccc12)C(=O)N[C@@H](C(=O)N[C@@H](Cc1c[nH]c2ccccc12)C(=O)N[C@H](CC(C)C)C(=O)N[C@@H](Cc1c[nH]c2ccccc12)C(=O)N[C@H](CC(C)C)C(=O)N[C@@H](Cc1c[nH]c2ccccc12)C(=O)NCCO)[C@H](C)O)C(C)C` [compound 11400] (For-VGA[dV]A[dL]V[dL]W[dT]W[dL]W[dL]W-NHCH2CH2OH): 1.03, “+” and 53%.
In the same order, the values of `CC(C)C[C@@H](NC(=O)[C@H](C)NC(=O)CNC(=O)[C@@H](NC=O)C(C)C)C(=O)N[C@@H](C)C(=O)N[C@@H](C(=O)N[C@H](C(=O)N[C@H](CC(C)C)C(=O)N[C@@H](Cc1c[nH]c2ccccc12)C(=O)N[C@@H](C(=O)N[C@@H](Cc1c[nH]c2ccccc12)C(=O)N[C@H](CC(C)C)C(=O)N[C@@H](Cc1c[nH]c2ccccc12)C(=O)N[C@H](CC(C)C)C(=O)N[C@@H](Cc1c[nH]c2ccccc12)C(=O)NCCO)C(C)C)C(C)C)[C@H](C)O` [compound 611] (For-VGA[dL]A[dT]V[dL]W[dV]W[dL]W[dL]W-NHCH2CH2OH) are 1.05, “-” and 100%.
The matching figures for `CNC(=O)C[C@@H](NC(=O)[C@H](Cc1c[nH]c2ccccc12)NC(=O)[C@@H](CC(C)C)NC(=O)[C@H](Cc1c[nH]c2ccccc12)NC(=O)[C@H](NC(=O)[C@H](Cc1c[nH]c2ccccc12)NC(=O)[C@@H](CC(C)C)NC(=O)[C@@H](NC(=O)[C@@H](CC(C)C)NC(=O)[C@H](C)NC(=O)[C@@H](CC(C)C)NC(=O)[C@H](C)NC(=O)CNC(=O)[C@@H](NC=O)C(C)C)C(C)C)C(C)C)C(=O)N[C@@H](Cc1c[nH]c2ccccc12)C(=O)NCCO` [compound 3854] (For-VGA[dL]A[dL]V[dL]W[dV]W[dL]W[dD](NHMe)W-NHCH2CH2OH): 1.18, “-” and 100%.
With `CC(C)C[C@@H](NC(=O)[C@H](Cc1c[nH]c2ccccc12)NC(=O)[C@H](NC(=O)[C@H](Cc1c[nH]c2ccccc12)NC(=O)[C@H](NC(=O)[C@H](Cc1c[nH]c2ccccc12)NC(=O)[C@@H](CC(C)C)NC(=O)[C@@H](NC(=O)[C@H](NC(=O)[C@H](C)NC(=O)[C@H](NC(=O)[C@H](C)NC(=O)CNC(=O)[C@@H](NC=O)C(C)C)C(C)C)[C@H](C)O)C(C)C)C(C)C)C(C)C)C(=O)N[C@@H](Cc1c[nH]c2ccccc12)C(=O)NCCO` [compound 7320] (For-VGA[dV]A[dT]V[dL]W[dV]W[dV]W[dL]W-NHCH2CH2OH), the “H+/Na+ transport activity normalized” value in data set [1] stood at 1.04. Also, in data set [2], the antibacterial activity entry is given as “-”. This compound also registered a viability in data set [3] of 58.5%.
In the same order, the values of `CNC(=O)C[C@@H](NC(=O)[C@@H](NC(=O)[C@H](NC(=O)[C@H](C)NC(=O)[C@H](NC(=O)[C@H](C)NC(=O)CNC(=O)[C@@H](NC=O)C(C)C)C(C)C)C(C)C)C(C)C)C(=O)N[C@@H](Cc1c[nH]c2ccccc12)C(=O)N[C@H](CC(C)C)C(=O)N[C@@H](Cc1c[nH]c2ccccc12)C(=O)N[C@@H](C(=O)N[C@@H](Cc1c[nH]c2ccccc12)C(=O)N[C@@H](C(=O)N[C@@H](Cc1c[nH]c2ccccc12)C(=O)NCCO)C(C)C)C(C)C` [compound 5536] (For-VGA[dV]A[dV]V[dD](NHMe)W[dL]W[dV]W[dV]W-NHCH2CH2OH) are 1.45, “-” and 100%.

Source of the values: publication PMC7531004, “Discovery of gramicidin A analogues with altered activities by multidimensional screening of a one-bead-one-compound library” (Nature Communications, 2020).
